From paper PMC4159853 (2014)

How the values were obtained:
[1] = tested on: R12.23 (DNA, aptamer) TGTACCGTCTGAGCGATTCGTACGAACGGCTTTGTACTGTTTGCACTGGCGGATTTAGCCAGTCAGTGTTAAGGAGTGC; assay: fluorescence saturation bead-based binding assay; conditions: 100 mM NaCl, 2 mM MgCl2; immobilised compound; 20 mM Tris-HCl, 10% methanol; reported by authors as Kd for atrazine
[2] = tested on: R12.28 (DNA, aptamer) TGTACCGTCTGAGCGATTCGTACCATTAGTGGGTGCTCCTTACCTGATGGTCATCTAGCCAGTCAGTGTTAAGGAGTGC; assay: fluorescence saturation bead-based binding assay; conditions: 100 mM NaCl, 2 mM MgCl2; immobilised compound; 20 mM Tris-HCl, 10% methanol; reported as Kd for atrazine; some non-specific bead binding
[3] = tested on: R12.57 (DNA, aptamer) TGTACCGTCTGAGCGATTCGTACGGATTGGGTTTGCACTTTACCTGCGGTGCATCGCAGCCAGTCAGTGTTAAGGAGTGC; assay: fluorescence saturation bead-based binding assay; conditions: 100 mM NaCl, 2 mM MgCl2; immobilised compound; 20 mM Tris-HCl, 10% methanol; reported as Kd for atrazine; some non-specific bead binding
[4] = tested on: R12.23 (DNA, aptamer) TGTACCGTCTGAGCGATTCGTACGAACGGCTTTGTACTGTTTGCACTGGCGGATTTAGCCAGTCAGTGTTAAGGAGTGC; assay: competitive elution of fluorescent ssDNA from target beads; conditions: 100 mM NaCl, 2 mM MgCl2; 20 mM Tris-HCl, 10% methanol; 100 µM eluent, 5 nM ssDNA; buffer alone 0.15; from immobilised desethyl atrazine
[5] = tested on: 34-base truncation of R12.23 (DNA, aptamer) TACTGTTTGCACTGGCGGATTTAGCCAGTCAGTG; assay: bead capture from processed river water, capillary electrophoresis quantification; conditions: 100 mM NaCl, 2 mM MgCl2; 20 mM Tris-HCl; extract of river water spiked with 40 nM; 37% (1.5 nmol) recovered

SMILES | Normalized Average Fluorescence [4] | other results
CC(C)Nc1nc(Cl)nc(NC(=O)CCCCCNC(=O)CCCC[C@@H]2SC[C@@H]3NC(=O)N[C@@H]32)n1 | – | Kd [1]: 0.62 ± 0.21 nM; Kd [2]: 5.10 ± 1.32 nM; Kd [3]: 20.78 ± 4.74 nM
CC(C)Nc1nc(N)nc(Cl)n1 | −0.054 ± 0.44 | –
CCC(=O)Nc1ccc(Cl)c(Cl)c1 | 0.65 ± 0.13 | –
CCNc1nc(Cl)nc(NC(C)C)n1 | 1 ± 0.11 | binding [5]: yes
CCNc1nc(Cl)nc(NCC)n1 | 0.47 ± 0.14 | –
Nc1nc(N)nc(Cl)n1 | 0.47 ± 0.10 | –
O=C(O)COc1ccc(Cl)cc1Cl | 0.64 ± 0.11 | –
